Measurements taken from ChEMBL document CHEMBL1201862, “PubChem BioAssay data set” (2004).
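Where inhibition never reached the appropriate level, the endpoint shown equals the highest concentration tested. Otherwise, values were interpolated linearly from a five-concentration, 48-hour dose response in 96-well plates. The concentration for 50% growth inhibition is given as GI50.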 Calls of active or inactive are those of the source. No stated cut-off is given here; in the data, active = GI50 up to about 1.1 µM and inactive = higher.

Columns and labels:
Experiment in all cases: NCI tumour cell line growth inhibition, 48 h
[1] = test system: A549
[2] = test system: SK-MEL-28
[3] = test system: CAKI-1
[4] = test system: NCI-H23
[5] = test system: M14
[6] = test system: OVCAR-3
[7] = test system: OVCAR-4
[8] = test system: MOLT-4
[9] = test system: SNB-19
[10] = test system: HT-29
[11] = test system: UACC-257
[12] = test system: TK-10
[13] = test system: 786-0
[14] = test system: SW-620
[15] = test system: IGROV-1
[16] = test system: HOP-92
[17] = test system: COLO 205

Structure (SMILES)	GI50 [1]	GI50 [2]	GI50 [3]	GI50 [4]	GI50 [5]	GI50 [6]	GI50 [7]	GI50 [8]	GI50 [9]	GI50 [10]	GI50 [11]	GI50 [12]	GI50 [13]	GI50 [14]	GI50 [15]	GI50 [16]	GI50 [17]
COc1ccc(C[C@@H]2Cc3cc(OC)c(OC)cc3CN2C)cc1	> 100 µM (inactive)	> 100 µM (inactive)	59.7 µM (inactive)	> 100 µM (inactive)	> 100 µM (inactive)	> 100 µM (inactive)	76.4 µM (inactive)	> 100 µM (inactive)	> 100 µM (inactive)	> 100 µM (inactive)	> 100 µM (inactive)	> 100 µM (inactive)	> 100 µM (inactive)	> 100 µM (inactive)			
CCOc1ccc(/N=N/c2ccc3oc(=O)c(/C(C)=N/NC(=O)CC(=O)Nc4cccc(OC)c4)cc3c2)cc1	28.2 µM (inactive)	20.8 µM (inactive)		17.5 µM (inactive)	16.4 µM (inactive)	13.4 µM (inactive)	16.3 µM (inactive)	3.56 µM (inactive)	12.2 µM (inactive)		3.8 µM (inactive)	28.3 µM (inactive)	10.5 µM (inactive)	21.4 µM (inactive)	23.6 µM (inactive)	19.1 µM (inactive)	28.1 µM (inactive)
O=S(=O)(OI(OI(OS(=O)(=O)C(F)(F)F)c1ccccc1)c1ccccc1)C(F)(F)F	46.8 µM (inactive)		27.8 µM (inactive)		43 µM (inactive)	93.3 µM (inactive)		20.2 µM (inactive)	44.3 µM (inactive)			> 100 µM (inactive)	50.4 µM (inactive)	32 µM (inactive)	55.8 µM (inactive)		51.2 µM (inactive)
Cc1ccc(C2=CC(=O)c3ccccc3C2=O)n1-c1ccccc1	> 100 µM (inactive)	> 100 µM (inactive)		> 100 µM (inactive)	> 100 µM (inactive)	87.1 µM (inactive)	25.6 µM (inactive)	26.1 µM (inactive)	35.6 µM (inactive)	> 100 µM (inactive)		> 100 µM (inactive)	> 100 µM (inactive)	> 100 µM (inactive)	> 100 µM (inactive)		> 100 µM (inactive)
CN(C)c1ccc2c(NCCCCCCNc3ccnc4cc(N(C)C)ccc34)ccnc2c1	> 100 µM (inactive)	14.3 µM (inactive)	42.6 µM (inactive)	10.1 µM (inactive)	22.6 µM (inactive)	13.7 µM (inactive)	11.9 µM (inactive)	6 µM (inactive)	0.605 µM (active)	19.2 µM (inactive)	14.9 µM (inactive)	12.5 µM (inactive)	20.8 µM (inactive)	23.3 µM (inactive)			
COC(=O)/C(C#N)=C1\CCC(C(=O)OC)N1C (stereo not drawn)	> 100 µM (inactive)	> 100 µM (inactive)	> 100 µM (inactive)	> 100 µM (inactive)	> 100 µM (inactive)	> 100 µM (inactive)	> 100 µM (inactive)	> 100 µM (inactive)	> 100 µM (inactive)		> 100 µM (inactive)	> 100 µM (inactive)	> 100 µM (inactive)		> 100 µM (inactive)	> 100 µM (inactive)	> 100 µM (inactive)
CC(/C(=N/NC(=O)C(N)=O)c1c(Cl)ccc(Cl)c1O)C1(O)C(=O)Nc2ccccc21 (stereo not drawn)	50.2 µM (inactive)	> 100 µM (inactive)	42.1 µM (inactive)	50.6 µM (inactive)	68.7 µM (inactive)	28.6 µM (inactive)	29.6 µM (inactive)		72.4 µM (inactive)	39.5 µM (inactive)	53.3 µM (inactive)	46.9 µM (inactive)	57 µM (inactive)	41.7 µM (inactive)	29.9 µM (inactive)	27.8 µM (inactive)	23.2 µM (inactive)
O=c1c2cc(Br)ccc2nc(-c2ccccc2Cl)n1NCC1(O)OCC(O)C(O)C1O (stereo not drawn)	> 100 µM (inactive)	> 100 µM (inactive)	> 100 µM (inactive)	> 100 µM (inactive)	> 100 µM (inactive)	76.2 µM (inactive)	60.7 µM (inactive)	57.1 µM (inactive)	> 100 µM (inactive)	> 100 µM (inactive)	> 100 µM (inactive)		> 100 µM (inactive)	> 100 µM (inactive)			> 100 µM (inactive)
COc1c(C(=O)c2ccc([N+](=O)[O-])cc2)cc(C(C)(C)C)cc1C(C)(C)C	31 µM (inactive)	22.8 µM (inactive)	41.6 µM (inactive)	34.7 µM (inactive)	22.9 µM (inactive)		43.1 µM (inactive)	16.4 µM (inactive)	48.5 µM (inactive)	28.7 µM (inactive)	22.9 µM (inactive)	13.8 µM (inactive)	40.9 µM (inactive)	48.6 µM (inactive)	72.4 µM (inactive)		
COc1cc2ccn3c4cc(OC)c(OC)cc4cc3c2cc1OC	> 100 µM (inactive)	> 100 µM (inactive)	29.6 µM (inactive)	> 100 µM (inactive)	63.1 µM (inactive)	58.6 µM (inactive)	> 100 µM (inactive)	> 100 µM (inactive)	> 100 µM (inactive)	> 100 µM (inactive)	> 100 µM (inactive)	> 100 µM (inactive)	33.5 µM (inactive)	> 100 µM (inactive)		> 100 µM (inactive)	> 100 µM (inactive)
CCCCC1(C)C=C/C(=C2/C(=O)O/C(=C\C(=O)O)C2=O)O1 (stereo not drawn)	> 100 µM (inactive)	> 100 µM (inactive)		> 100 µM (inactive)	> 100 µM (inactive)	> 100 µM (inactive)	> 100 µM (inactive)	> 100 µM (inactive)	> 100 µM (inactive)	> 100 µM (inactive)	> 100 µM (inactive)	> 100 µM (inactive)	> 100 µM (inactive)	> 100 µM (inactive)	> 100 µM (inactive)		> 100 µM (inactive)
CCOC(=O)/C(C#N)=C\C=C1/C=CN=C2NCCN21	> 100 µM (inactive)	> 100 µM (inactive)	> 100 µM (inactive)	> 100 µM (inactive)	> 100 µM (inactive)	> 100 µM (inactive)	> 100 µM (inactive)	> 100 µM (inactive)	> 100 µM (inactive)	> 100 µM (inactive)	> 100 µM (inactive)	> 100 µM (inactive)	> 100 µM (inactive)	> 100 µM (inactive)	> 100 µM (inactive)		> 100 µM (inactive)
Cc1cccc(C)c1CO	> 100 µM (inactive)		> 100 µM (inactive)	> 100 µM (inactive)	> 100 µM (inactive)	> 100 µM (inactive)	> 100 µM (inactive)	> 100 µM (inactive)	> 100 µM (inactive)	> 100 µM (inactive)	> 100 µM (inactive)		> 100 µM (inactive)	> 100 µM (inactive)	> 100 µM (inactive)	> 100 µM (inactive)	> 100 µM (inactive)
OCc1c[te]c(-c2ccccc2)c1	63.2 µM (inactive)	63.1 µM (inactive)	47.4 µM (inactive)	22.1 µM (inactive)	84.7 µM (inactive)	15.5 µM (inactive)	32 µM (inactive)	38.8 µM (inactive)		> 10 µM (inactive)	57.5 µM (inactive)	> 100 µM (inactive)	> 100 µM (inactive)	> 100 µM (inactive)	> 100 µM (inactive)		
C(=N\Nc1ccccc1)/c1nc2ccccc2nc1/C=N/Nc1ccccc1	14.3 µM (inactive)	17.5 µM (inactive)	7.71 µM (inactive)	13.3 µM (inactive)	14.7 µM (inactive)	16.6 µM (inactive)	27.8 µM (inactive)	13.2 µM (inactive)	18.9 µM (inactive)	10.8 µM (inactive)	23 µM (inactive)	15.8 µM (inactive)	15.6 µM (inactive)	14.9 µM (inactive)	12.1 µM (inactive)	17.5 µM (inactive)	
Cc1cc2c(cc1C)NC(=O)C(NC(=O)/C=C/c1ccccc1)C=N2 (stereo not drawn)	30.7 µM (inactive)	72.3 µM (inactive)	31.3 µM (inactive)		34 µM (inactive)	20.1 µM (inactive)	38.9 µM (inactive)	20.7 µM (inactive)	64.3 µM (inactive)		24.3 µM (inactive)	50.6 µM (inactive)	30.3 µM (inactive)	4.73 µM (inactive)	34.8 µM (inactive)		18.1 µM (inactive)
COc1cc(C2C(C(=O)Nc3ccccc3)=C(C)NC(C)=C2C(=O)Nc2ccccc2)ccc1O	40.6 µM (inactive)	46.7 µM (inactive)		39.5 µM (inactive)		23 µM (inactive)	29.1 µM (inactive)	27.4 µM (inactive)	33.7 µM (inactive)	18.7 µM (inactive)	61.9 µM (inactive)	> 100 µM (inactive)	37.8 µM (inactive)	37.9 µM (inactive)	37 µM (inactive)	19.3 µM (inactive)	24.2 µM (inactive)
CN(C)c1ccc(-c2cc(O)c3cc4c(cc3n2)OCO4)cc1	> 100 µM (inactive)	> 100 µM (inactive)		> 100 µM (inactive)	> 100 µM (inactive)	> 100 µM (inactive)	> 100 µM (inactive)	> 100 µM (inactive)	> 100 µM (inactive)	> 100 µM (inactive)	> 100 µM (inactive)	> 100 µM (inactive)	> 100 µM (inactive)	> 100 µM (inactive)	> 100 µM (inactive)		> 100 µM (inactive)
